Patent US9695155B2, “Herbicidal substituted pyrimidinyloxy benzene compounds” (E. I. DU PONT DE NEMOURS AND COMPANY, priority 2013, dated 2017)

Assays:
Test in all cases: Test E preemergence
palmer pigweed = format: in vivo, Amaranthus palmeri; conditions: for Pigweed, Palmer plant response rating: scale 0 to 100 (0 no effect, 100 complete control)
Excerpt: (§1) Seeds of plant species selected from corn (Zea mays), soybean (Glycine max), velvetleaf (Abutilon theophrasti), lambsquarters (Chenopodium album), wild poinsettia (Euphorbia heterophylla), palmer pigweed (Amaranthus palmeri), waterhemp (common waterhemp, Amaranthus rudis), surinam grass (Brachiaria decumbens), large (Lg) crabgrass (Digitaria sanguinalis), Brazilian crabgrass (Digitaria horizontalis), fall panicum (Panicum dichotomiflorum), giant foxtail (Setaria faberii), green foxtail (Setaria viridis), goosegrass (Eleusine indica), johnsongrass (Sorghum halepense), ragweed (common ragweed, Ambrosia elatior), barnyardgrass (Echinochloa crus-galli), sandbur (southern sandbur, Cenchrus echinatus), arrowleaf sida (Sida rhombifolia), Italian ryegrass (Lolium multiflorum), dayflower (Virginia (VA) dayflower, Commelina virginica), field bindweed (Convolvulus arvensis), morningglory (Ipomoea coccinea), nightshade (eastern black nightshade, Solanum ptycanthum), kochia (Kochia scoparia), yellow nutsedge (Cyperus esculentus), cocklebur (common cocklebur, Xanthium strumarium), smartweed (ladysthumb smartweed, and hairy beggarticks (Bidens pilosa), were planted into a silt loam soil and treated preemergence with test chemicals formulated in a non-phytotoxic solvent mixture which included a surfactant.
(§2) At the same time, plants from these crop and weed species and also horseweed (Canada horseweed, Conyza canadensis), waterhemp_RES1, (ALS & Triazine resistant common waterhemp, Amaranthus rudis), and waterhemp_RES2, (ALS & HPPD resistant common waterhemp, Amaranthus rudis) were planted in pots containing Redi-Earth® planting medium (Scotts Company, 14111 Scottslawn Road, Marysville, Ohio 43041) comprising spaghnum peat moss, vermiculite, wetting agent and starter nutrients were treated with postemergence applications of test chemicals formulated in the same manner. Plants ranged in height from 2 to 18 cm for postemergence treatments (1- to 4-leaf stage). Treated plants and controls were maintained in a greenhouse for 14 to 21 days, after which time all species were compared to controls and visually evaluated. Plant response ratings, summarized in Table E, are based on a scale of 0 to 100 where 0 is no effect and 100 is complete control. A dash (-) response means no test result.

Brazilian crabgrass = format: in vivo, Digitaria horizontalis; conditions: for Crabgrass, Brazil plant response rating: scale 0 to 100 (0 no effect, 100 complete control)
Excerpt: as §1, §2

soybean = format: in vivo, Glycine max; conditions: for Soybean plant response rating: scale 0 to 100 (0 no effect, 100 complete control)
Excerpt: as §1, §2

wild poinsettia = format: in vivo, Euphorbia heterophylla; conditions: for Poinsettia, Wild plant response rating: scale 0 to 100 (0 no effect, 100 complete control)
Excerpt: as §1, §2

velvetleaf = format: in vivo, Abutilon theophrasti; conditions: for Velvetleaf plant response rating: scale 0 to 100 (0 no effect, 100 complete control)
Excerpt: as §1, §2

waterhemp = format: in vivo, Amaranthus rudis; conditions: for Waterhemp plant response rating: scale 0 to 100 (0 no effect, 100 complete control)
Excerpt: as §1, §2

morningglory = format: in vivo, Ipomoea coccinea; conditions: for Morningglory plant response rating: scale 0 to 100 (0 no effect, 100 complete control)
In short: (§3)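 Response was scored visually on a 0-100 scale (100 = complete control) versus controls after 14 to 21 days in the greenhouse. Test chemicals, formulated with surfactant in a non-phytotoxic solvent mixture, had been applied preemergence to seeds in silt loam soil or postemergence to 1- to 4-leaf plants in potting medium.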

Italian ryegrass = format: in vivo, Lolium multiflorum; conditions: for Ryegrass, Italian plant response rating: scale 0 to 100 (0 no effect, 100 complete control)
In short: as §3

ragweed = format: in vivo, Ambrosia elatior; conditions: for Ragweed plant response rating: scale 0 to 100 (0 no effect, 100 complete control)
In short: as §3

giant foxtail = format: in vivo, Setaria faberii; conditions: for Foxtail, Giant plant response rating: scale 0 to 100 (0 no effect, 100 complete control)
Excerpt: as §1, §2

dayflower = format: in vivo, Commelina virginica; conditions: for Dayflower, VA plant response rating: scale 0 to 100 (0 no effect, 100 complete control)
In short: as §3

sandbur = format: in vivo, Cenchrus echinatus; conditions: for Sandbur plant response rating: scale 0 to 100 (0 no effect, 100 complete control)
In short: as §3

[1] = 8 g ai/ha, scale 0 to 100, 0 is no effect, 100 is complete control
[2] = 125 g ai/ha, scale 0 to 100, 0 no effect, 100 complete control

FC(F)c1cccc(Oc2ncc(Cl)cn2)c1-n1cc(C(F)(F)F)cn1 [Compound 170]
Plant response rating, Pigweed, Palmer (palmer pigweed; [1]): 0 | Pigweed, Palmer plant response rating (palmer pigweed; 31 g ai/ha): 95 | Pigweed, Palmer plant response rating (palmer pigweed; 62 g ai/ha): 100 | Plant response rating, Pigweed, Palmer (palmer pigweed; [2]): 100 | Plant response rating, Crabgrass, Brazil (Brazilian crabgrass; [1]): 30 | Crabgrass, Brazil plant response rating (Brazilian crabgrass; 16 g ai/ha): 40 | Crabgrass, Brazil plant response rating (Brazilian crabgrass; 31 g ai/ha): 100 | Crabgrass, Brazil plant response rating (Brazilian crabgrass; 62 g ai/ha): 100 | Plant response rating, Crabgrass, Brazil (Brazilian crabgrass; [2]): 100 | Plant response rating, Soybean (soybean; [1]): 0 | Soybean plant response rating (soybean; 31 g ai/ha): 0 | Soybean plant response rating (soybean; 62 g ai/ha): 30 | Plant response rating, Soybean (soybean; [2]): 60 | Plant response rating, Poinsettia, Wild (wild poinsettia; [1]): 0 | Poinsettia, Wild plant response rating (wild poinsettia; 31 g ai/ha): 20 | Poinsettia, Wild plant response rating (wild poinsettia; 62 g ai/ha): 25 | Plant response rating, Poinsettia, Wild (wild poinsettia; [2]): 40 | Plant response rating, Velvetleaf (velvetleaf; [1]): 0 | Velvetleaf plant response rating (velvetleaf; 31 g ai/ha): 60 | Velvetleaf plant response rating (velvetleaf; 62 g ai/ha): 65 | Plant response rating, Velvetleaf (velvetleaf; [2]): 100 | Plant response rating, Waterhemp (waterhemp; [1]): 0 | Waterhemp plant response rating (waterhemp; 31 g ai/ha): 80 | Waterhemp plant response rating (waterhemp; 62 g ai/ha): 90 | Plant response rating, Waterhemp (waterhemp; [2]): 80 | Plant response rating, Morningglory (morningglory; [1]): 0 | Morningglory plant response rating (morningglory; 31 g ai/ha): 10 | Morningglory plant response rating (morningglory; 62 g ai/ha): 35 | Plant response rating, Morningglory (morningglory; [2]): 95 | Plant response rating, Ryegrass, Italian (Italian ryegrass; [1]): 0 | Ryegrass, Italian plant response rating (Italian ryegrass; 31 g ai/ha): 20 | Ryegrass, Italian plant response rating (Italian ryegrass; 62 g ai/ha): 35 | Plant response rating, Ryegrass, Italian (Italian ryegrass; [2]): 70 | Plant response rating, Ragweed (ragweed; [1]): 0 | Ragweed plant response rating (ragweed; 31 g ai/ha): 0 | Ragweed plant response rating (ragweed; 62 g ai/ha): 5 | Plant response rating, Ragweed (ragweed; [2]): 35 | Plant response rating, Foxtail, Giant (giant foxtail; [1]): 0 | Foxtail, Giant plant response rating (giant foxtail; 16 g ai/ha): 0 | Foxtail, Giant plant response rating (giant foxtail; 31 g ai/ha): 25 | Foxtail, Giant plant response rating (giant foxtail; 62 g ai/ha): 100 | Plant response rating, Foxtail, Giant (giant foxtail; [2]): 100 | Plant response rating, Dayflower, VA (dayflower; [1]): 0 | Dayflower, VA plant response rating (dayflower; 16 g ai/ha): 30 | Dayflower, VA plant response rating (dayflower; 31 g ai/ha): 30 | Dayflower, VA plant response rating (dayflower; 62 g ai/ha): 80 | Plant response rating, Dayflower, VA (dayflower; [2]): 95 | Plant response rating, Sandbur (sandbur; [1]): 0 | Sandbur plant response rating (sandbur; 31 g ai/ha): 0 | Sandbur plant response rating (sandbur; 62 g ai/ha): 30 | Plant response rating, Sandbur (sandbur; [2]): 35
